Here are results for 14 molecules from patent US5668147A, “Quinolinecarboxylic acid derivatives and salts thereof” (Kaken Pharmaceutical Co., Ltd., priority 1993, dated 1997).

The LD50 is the dose at which mortality reaches 50%.

One data set has as its system E. coli JC3. The data set can be described thus: Antibacterial activity, MIC by agar plate dilution assay. Further details: unit not given here. In kind it is cell-based. The procedure:
(§1) Antibacterial activities of the compounds of the present invention were measured as the minimum inhibitory concentration (MIC) by the agar plate dilution assay method according to the standard method of Japan Society of Chemotherapy. Ofloxacin (OFLX) was used as the control compound.

In the next data set the test system is E. faecalis 1373. The description is as above. Further details: unit not given here. Format: cell-based. The procedure:
as §1

The next data set concerns S. aureus JS1 (MRSA). The description is as above. Format: cell-based. Details: unit not given here. The method, then:
as §1

Another data set has as its system S. aureus KP90-3 (MRSA). The description is as above. In kind it is cell-based. Further details: unit not given here. The method, then:
as §1

A further data set has as its system S. aureus Smith. The description is as above. Format: cell-based. Details: unit not given here. The method, then: as §1
For another data set, the system named is S. pyogenes Cook. Described as above. Further details: unit not given here. Format: cell-based. The method, then: as §1
The nature of data set [1]: Acute toxicity test, oral, ICR mice. Particulars: mouse, in vivo, 6-week-old ICR mice, orally, suspended in 0.5% methylcellulose. The method, then: Acute toxicity test was performed using 6-week-old ICR mice. The compound of Example 21a was used as the tested compound. The compound was suspended in a 0.5% solution of methylcellulose, and the suspension was orally administered. The value of LD50 was at least 4000 mg/kg.

Data set [2] deals with peripheral blood erythrocytes. The data set can be described thus: Mutagenicity, micronucleus assay in mice. In kind it is in vivo. The following applies: 8-week-old ICR mice; abdominally administered in olive oil; dose 200 mg/kg; before and 24, 48 and 72 hours after. The procedure:
Micronucleus assay was performed using 8-week-old ICR mice to confirm whether the compounds have mutagenicity. The compound of Example 21a was suspended in olive oil, and the suspension was abdominally administered to mice. The peripheral blood was obtained before and 24, 48 and 72 hours after the administration, and smeared specimens of the peripheral blood were prepared by acridine orange dying. In each specimen, 1000 erythrocytes were observed and frequency of occurrence of micronucleus was recorded. The frequency was not changed even in dose 200 mg/kg.

Some results are limits rather than exact numbers.

For the molecule `COc1c(N2C[C@@H](N)[C@H](C(F)(F)F)C2)c(F)cc2c(=O)c(C(=O)O)cn(C3CC3)c12` (relative stereo) [Example 31a], the “Minimum Inhibitory Concentration (MIC)” value was found to be 0.39 in the data set on E. coli JC3; 0.39 with E. faecalis 1373; 0.05 in the data set on S. aureus JS1 (MRSA); 3.13 in the data set on S. aureus KP90-3 (MRSA); 0.05 in the data set with S. aureus Smith; 0.39 in the data set on S. pyogenes Cook.

With `CC1COc2c(N3CCN(C)CC3)c(F)cc3c(=O)c(C(=O)O)cn1c23` (centres unmarked) [OFLX, Ofloxacin, reference compound], the “Minimum Inhibitory Concentration (MIC)” value in the data set with E. coli JC3 is 0.1; with E. faecalis 1373, 1.56; with S. aureus JS1 (MRSA), 0.39; in the data set on S. aureus KP90-3 (MRSA) it was 25; with S. aureus Smith, 0.2; with S. pyogenes Cook, 0.78.

With `O=C(O)c1cn(C2CC2)c2c(F)c(N3C[C@@H](CO)[C@H](C(F)(F)F)C3)c(F)cc2c1=O` (relative stereo) [Example 6a, 1-Cyclopropyl-6,8-difluoro-1,4-dihydro-7-(trans-3-hydroxymethyl-4-trifluoromethyl-1-pyrrolidinyl)-4-oxoquinoline-3-carboxylic acid], the “Minimum Inhibitory Concentration (MIC)” value in the data set on E. coli JC3 was found to be 0.39; in the data set with E. faecalis 1373, 0.39; with S. aureus JS1 (MRSA) it was 0.05; with S. aureus KP90-3 (MRSA) it was 3.13; with S. aureus Smith, 0.025; in the data set with S. pyogenes Cook, 0.39.

Turning to `O=C(O)c1cn(C2CC2)c2c(Cl)c(N3C[C@@H](CO)[C@H](C(F)(F)F)C3)c(F)cc2c1=O` (relative stereo) [Example 7a], the “Minimum Inhibitory Concentration (MIC)” value in the data set on E. coli JC3 is 0.39; in the data set on E. faecalis 1373, 0.2; with S. aureus JS1 (MRSA) it was 0.013; in the data set with S. aureus KP90-3 (MRSA), 0.39; with S. aureus Smith, at most 0.006; in the data set with S. pyogenes Cook, 0.1.

`COc1c(N2C[C@@H](CN)[C@H](C(F)(F)F)C2)c(F)cc2c(=O)c(C(=O)O)cn(C3CC3)c12` (relative stereo) [Example 21a]: the “Minimum Inhibitory Concentration (MIC)” value with E. coli JC3 was found to be 0.1; with E. faecalis 1373, 0.1; with S. aureus JS1 (MRSA), 0.013; in the data set on S. aureus KP90-3 (MRSA) it was 0.78; with S. aureus Smith, 0.013; with S. pyogenes Cook it was 0.025. Also, the LD50 in data set [1] was at least 4000 mg/kg. Moreover, the “frequency of occurrence of micronucleus” value in data set [2] is reported as “not changed”.

In the case of `COc1c(N2C[C@@H](CO)[C@H](C(F)(F)F)C2)c(F)cc2c(=O)c(C(=O)O)cn(C3CC3)c12` (relative stereo) [Example 9a, 1-Cyclopropyl-6-fluoro-1,4-dihydro-7-(trans-3-hydroxymethyl-4-trifluoromethyl-1-pyrrolidinyl)-8-methoxy-4-oxoquinoline-3-carboxylic acid], the “Minimum Inhibitory Concentration (MIC)” value is reported as 0.39 in the data set on E. coli JC3; 0.2 with E. faecalis 1373; 0.013 with S. aureus JS1 (MRSA); 0.78 in the data set on S. aureus KP90-3 (MRSA); at most 0.006 with S. aureus Smith; 0.2 with S. pyogenes Cook.

As to `N[C@@H]1CN(c2nc3c(cc2F)c(=O)c(C(=O)O)cn3-c2ccc(F)cc2F)C[C@H]1C(F)(F)F` (relative stereo) [Example 35a], the “Minimum Inhibitory Concentration (MIC)” value with E. coli JC3 worked out at 0.78; with E. faecalis 1373, 0.78; with S. aureus JS1 (MRSA), 0.1; with S. aureus KP90-3 (MRSA), 25; in the data set with S. aureus Smith, 0.05; in the data set with S. pyogenes Cook, 0.39.

As to `Nc1c(F)c(N2C[C@@H](CO)[C@H](C(F)(F)F)C2)c(F)c2c1c(=O)c(C(=O)O)cn2C1CC1` (relative stereo) [Example 8a], the “Minimum Inhibitory Concentration (MIC)” value in the data set on E. coli JC3 is 0.2; in the data set on E. faecalis 1373, 0.2; in the data set on S. aureus JS1 (MRSA), 0.013; with S. aureus KP90-3 (MRSA), 3.13; with S. aureus Smith, at most 0.006; with S. pyogenes Cook, 0.39.

Take `N[C@@H]1CN(c2c(F)cc3c(=O)c(C(=O)O)cn(C4CC4)c3c2F)C[C@H]1C(F)(F)F` (relative stereo) [Example 23a]: the “Minimum Inhibitory Concentration (MIC)” value in the data set on E. coli JC3 stood at 0.2; in the data set on E. faecalis 1373 it was 0.78; with S. aureus JS1 (MRSA), 0.2; in the data set on S. aureus KP90-3 (MRSA), 12.5; in the data set on S. aureus Smith, 0.1; in the data set with S. pyogenes Cook it was 0.78.

With `NC[C@@H]1CN(c2c(F)cc3c(=O)c(C(=O)O)cn(C4CC4)c3c2Cl)C[C@H]1C(F)(F)F` (relative stereo) [Example 15a], the “Minimum Inhibitory Concentration (MIC)” value in the data set with E. coli JC3 is on record as 0.05; with E. faecalis 1373 it was 0.1; with S. aureus JS1 (MRSA), 0.013; in the data set with S. aureus KP90-3 (MRSA), 0.39; in the data set with S. aureus Smith, at most 0.006; in the data set with S. pyogenes Cook, 0.013.

Consider `N[C@@H]1CN(c2c(F)cc3c(=O)c(C(=O)O)cn(C4CC4)c3c2Cl)C[C@H]1C(F)(F)F` (relative stereo) [Example 26a], for which the “Minimum Inhibitory Concentration (MIC)” value amounted to 0.2 in the data set on E. coli JC3; 0.39 with E. faecalis 1373; 0.05 in the data set on S. aureus JS1 (MRSA); 3.13 in the data set with S. aureus KP90-3 (MRSA); 0.05 with S. aureus Smith; 0.39 in the data set on S. pyogenes Cook.

Regarding `NC[C@@H]1CN(c2c(F)c(N)c3c(=O)c(C(=O)O)cn(C4CC4)c3c2F)C[C@H]1C(F)(F)F` (relative stereo) [Example 18a], the “Minimum Inhibitory Concentration (MIC)” value in the data set on E. coli JC3 is given as 0.025; in the data set on E. faecalis 1373 it was 0.05; with S. aureus JS1 (MRSA), at most 0.006; in the data set on S. aureus KP90-3 (MRSA), 1.56; in the data set on S. aureus Smith, at most 0.006; in the data set on S. pyogenes Cook, 0.013.

In the case of `Cl.NC[C@@H]1CN(c2c(F)cc3c(=O)c(C(=O)O)cn(C4CC4)c3c2F)C[C@H]1C(F)(F)F` (relative stereo) [Example 12a, 7-(Trans-3-aminomethyl-4-trifluoromethyl-1-pyrrolidinyl)-1-cyclopropyl-6,8-difluoro-1,4-dihydro-4-oxoquinoline-3-carboxylic acid hydrochloride], the “Minimum Inhibitory Concentration (MIC)” value with E. coli JC3 came to 0.05; in the data set with E. faecalis 1373, 0.1; in the data set on S. aureus JS1 (MRSA), 0.025; in the data set on S. aureus KP90-3 (MRSA), 0.78; in the data set on S. aureus Smith, 0.013; with S. pyogenes Cook, 0.025.

`Nc1c(F)c(N2C[C@@H](N)[C@H](C(F)(F)F)C2)c(F)c2c1c(=O)c(C(=O)O)cn2C1CC1` (relative stereo) [Example 29a]: the “Minimum Inhibitory Concentration (MIC)” value in the data set on E. coli JC3 came out at 0.05; in the data set with E. faecalis 1373, 0.39; in the data set with S. aureus JS1 (MRSA) it was 0.05; in the data set with S. aureus KP90-3 (MRSA), 25; with S. aureus Smith it was 0.025; with S. pyogenes Cook, 0.2.
